{"source": "BindingDB's records for doi:10.1016/s0960-894x(00)00456-x", "about": "(Australian National University, 2001)", "target": "Leucine--tRNA ligase (Staphylococcus aureus)", "test": "Compound was evaluated for its inhibitory activity against Leucyl-tRNA synthetase from staphylococcus aureus WCUH29"}
{"compound": "CC[C@H](C)[C@H](N)C(=O)NS(=O)(=O)CC(=O)N[C@]1(C(=O)OC)[C@@H]2CN(C)C=C(C(N)=O)[C@@H]2C[C@@H]1O", "note": "[(4aR,6S,7R,7aS)-7-[2-((2S,3S)-2-Amino-3-methyl-pentanoylsulfamoyl)-acetylamino]-4-carbamoyl-6-hydroxy-2-methyl-2,4a,5,6,7,7a-hexahydro-1H-[2]pyrindine-7-carboxylic acid methyl ester]", "values": [{"measurement": "IC50", "value": 186, "unit": "µM"}]}
